In experiment [1] the test system is interleukin 1 production. In words: Interleukin 1 production inhibitory activity (LPS, abdominal exuded macrophage, ELISA). The format is cell-based, BALB/c mouse. As to conditions: 10^-6 M, 1 μg/ml LPS, 24 hours, mouse macrophage. How it is done:
1 ml of a 5% oyster glycogen solution was intra-abdominally administered to a BALB/c mouse (male, 8 weeks in age), and 4 days after the administration, the infiltrated abdominal exuded cells were adhered to a plastic dish for 2 hours, and 1 μg/ml of LPS was allowed to act on macrophage (1×10^6 cells). Interleukin 1 extricated on the supernatant in 24 hours was measured by an ELISA technique. The test compound (compounds of Ex. No. described in Table 3) was prepared so as to have a concentration of 10^-6 M, and the interleukin 1 production inhibitory activity was, expressed in terms of the percentage inhibition based on the amount of production of the control.

The target in experiment [2] is T1, xanthine oxidase (Bos taurus, UniProt P80457).
T1 construct: purchased Sigma Chemical Company; host or cells: butter milk
T1 sequence (P80457 whole entry): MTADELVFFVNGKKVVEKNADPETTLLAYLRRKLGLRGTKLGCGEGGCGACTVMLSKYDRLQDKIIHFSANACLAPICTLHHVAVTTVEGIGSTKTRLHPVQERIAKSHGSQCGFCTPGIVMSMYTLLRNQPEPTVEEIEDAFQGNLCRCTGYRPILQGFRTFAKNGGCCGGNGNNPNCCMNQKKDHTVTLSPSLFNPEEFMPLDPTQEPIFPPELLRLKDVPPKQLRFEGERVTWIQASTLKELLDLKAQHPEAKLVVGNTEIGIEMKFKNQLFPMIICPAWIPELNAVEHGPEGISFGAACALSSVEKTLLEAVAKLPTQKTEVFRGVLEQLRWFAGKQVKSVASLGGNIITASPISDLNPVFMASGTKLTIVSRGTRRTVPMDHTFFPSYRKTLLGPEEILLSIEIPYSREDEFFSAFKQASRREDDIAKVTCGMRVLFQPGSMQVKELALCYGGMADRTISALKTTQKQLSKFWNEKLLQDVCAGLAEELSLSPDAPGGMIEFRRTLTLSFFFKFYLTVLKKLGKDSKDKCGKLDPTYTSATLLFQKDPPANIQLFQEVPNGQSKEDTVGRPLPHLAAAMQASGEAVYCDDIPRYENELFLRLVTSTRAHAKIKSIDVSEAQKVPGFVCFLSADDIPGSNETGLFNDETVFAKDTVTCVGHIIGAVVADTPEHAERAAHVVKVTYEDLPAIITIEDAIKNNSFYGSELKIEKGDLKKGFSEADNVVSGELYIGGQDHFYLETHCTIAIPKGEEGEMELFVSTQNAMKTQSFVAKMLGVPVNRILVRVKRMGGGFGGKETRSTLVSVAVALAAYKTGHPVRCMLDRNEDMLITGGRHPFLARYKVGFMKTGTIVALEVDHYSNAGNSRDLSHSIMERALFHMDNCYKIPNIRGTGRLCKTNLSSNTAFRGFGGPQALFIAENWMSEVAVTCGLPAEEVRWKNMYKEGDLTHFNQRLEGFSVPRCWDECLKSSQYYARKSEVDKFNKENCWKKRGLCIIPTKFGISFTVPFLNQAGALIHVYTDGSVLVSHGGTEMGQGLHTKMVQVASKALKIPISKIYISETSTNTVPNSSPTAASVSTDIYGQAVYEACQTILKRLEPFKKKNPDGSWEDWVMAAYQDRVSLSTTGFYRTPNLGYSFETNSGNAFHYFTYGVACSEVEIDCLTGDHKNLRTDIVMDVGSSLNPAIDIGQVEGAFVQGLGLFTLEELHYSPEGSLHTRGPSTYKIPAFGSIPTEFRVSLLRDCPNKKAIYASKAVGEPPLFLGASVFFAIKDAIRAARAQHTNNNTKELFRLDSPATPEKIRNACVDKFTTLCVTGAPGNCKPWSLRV
In words: In vitro determination of xanthine oxidase (XOD) inhibition. The format is biochemical. The following applies: xanthine oxidase from butter milk, xanthine substrate, pH 7.4, 37° C. How it is done: (1) Preparation of test compounds:
Test compounds (compounds of Ex. No. listed in Table 1) were dissolved in dimethylsulfoxide and diluted with a 50 mM phosphate buffer to prepare aqueous solutions respectively having predetermined concentrations.
The inhibition rate was determined by the following equation: [formula]
The inhibition (%) was determined on each test compound prepared according to (1), and the IC50 value on the xanthine oxidase (XOD) inhibition was calculated from the value of inhibition.

The test system of experiment [3] is serum uric acid. In words: Determination of oral administration: lowering of serum uric acid in mice. It counts as in vivo, ICR male mice. As to conditions: ICR male mice, oral, 1 mg/kg, 2 hours after administration, serum; for inhibition in vivo at 1 mg/kg: Mus musculus, read-out: Activity of lowering uric acid. How it is done: Test compounds suspended in a 5% gum arabic solution was forcibly administered by oral administration (compounds of Ex. No. of Table 2, dose: 1 mg/kg) to ICR male mice (age: about 7 weeks) (one group: 6 mice) by means of an oral probe. 2 hours after the administration, thoracotomy was conducted under etherization to collect blood from the heart, and serum was removed by a conventional process. The serum uric acid was measured by a biochemical automatic analyzer (Flexigem; Electro-Nucleonics, Inc.) by using a uric acid measurement kit (UA reagent; International Reagent) to determine the percentage of the lowering of uric acid. [formula]

`Cc1nc(-c2cc(Cl)cc(Cl)c2)sc1C(=O)O` [Example 27, 2-(3,5-Dichlorophenyl)-4-methyl-5-thiazolecarboxylic acid] yielded an inhibition at 1 µM in experiment [1] of 43%. Further, in experiment [2], it took 10 nM to reach half-maximal inhibition (IC50).
`Cc1nc(-c2ccc(N3CCOCC3)c(Cl)c2)sc1C(=O)O` [Example 59, 2-(3-chloro-4-morpholinophenyl)-4-methyl-5-thiazolecarboxylic acid]: the inhibition in vivo at 1 mg/kg in experiment [3] was determined as 62%. The same compound yielded an IC50 in experiment [2] of 0.38 nM.
Taken in the same sequence, the figures for `Cc1nc(-c2ccc(Sc3ccc(Cl)cc3)c(Cl)c2)sc1C(=O)O` [Example 61, 2-(3-Chloro-4-(4-chlorophenylthio)phenyl)-4-methyl-5-thiazolecarboxylic acid] were 32% and 2 nM.
For `Cc1nc(-c2ccc(OCC3CCCCC3)c([N+](=O)[O-])c2)sc1C(=O)O` [Example 32, 2-(4-Cyclohexylmethyloxy-3-nitrophenyl)-4-methyl-5-thiazolecarboxylic acid], in experiment [3], the inhibition in vivo at 1 mg/kg is 48%. In addition, the 50% inhibitory concentration (IC50) in experiment [2] was determined as 0.18 nM.
For the compound `Cc1nc(-c2cc(Cl)c(OCCC(C)C)c(Cl)c2)sc1C(=O)O` [Example 71, 2-(3,5-Dichloro-4-isopentyloxyphenyl)-4-methyl-5-thiazolecarboxylic acid], the inhibition in vivo at 1 mg/kg in experiment [3] is 50%. The IC50 in experiment [2] turned out to be 1.5 nM.
Taken in the same sequence, the figures for `CCC(CC)COc1c(Cl)cc(-c2nc(C)c(C(=O)O)s2)cc1Cl` [Example 70, 2-(3,5-Dichloro-4-(2-ethylbutyloxy)phenyl)-4-methyl-5-thiazolecarboxylic acid] were 15% and 0.8 nM.
Taken in the same sequence, the figures for `Cc1nc(-c2ccc(OCC(C)(C)C)c(C#N)c2)sc1C(=O)O` [Example 78, 2-(3-Cyano-4-neopentyloxyphenyl)-4-methyl-5-thiazolecarboxylic acid] were 91% and 1.9 nM.
The matching figures for `Cc1nc(-c2ccc(OCC(C)C)c(C(F)(F)F)c2)sc1C(=O)O` [Example 83, 2-(4-isobutyloxy-3-trifluomethylphenyl)-4-methyl-5-thiazolecarboxylic acid]: 86% and 1.1 nM.
As for `CCOCCOc1ccc(-c2nc(C)c(C(=O)O)s2)cc1Cl` [Example 55, 2-(3-Chloro-4-(2-ethoxyethyloxy)phenyl)-4-methyl-5-thiazolecarboxylic acid], in experiment [3], the inhibition in vivo at 1 mg/kg stood at 45%. Further, the half-inhibitory concentration (IC50) in experiment [2] was found to be 7 nM.
The matching figures for `Cc1nc(-c2ccc(Sc3ccc(Cl)cc3)c([N+](=O)[O-])c2)sc1C(=O)O` [Example 36, 2-(4-(4-chlrophenyl)thio-3-nitrophenyl)-4-methyl-5thiazolecarboxylic acid]: 14% and 0.02 nM.
On to `Cc1nc(-c2ccc(OC(C)C)c([N+](=O)[O-])c2)sc1C(=O)O` [Example 31, 2-(4-isopropoxy-3-nitrophenyl)-4-methyl-5-thiazolecarboxylic acid], for which the inhibition in vivo at 1 mg/kg in experiment [3] was 90%. Further, the IC50 in experiment [2] amounted to 0.57 nM.
With `Cc1nc(-c2ccc(OCC(C)(C)C)c(Cl)c2)sc1C(=O)O` [Example 54, 2-(3-Chloro-4-neopentyloxyphenYl)-4-methyl-5-thiazolecarboxylic acid], in experiment [3], the inhibition in vivo at 1 mg/kg is 12%. Moreover, it took 2.9 nM to reach half-maximal inhibition in experiment [2] (IC50).
For `Cc1nc(-c2ccc(OCC(C)C)c(Cl)c2)sc1C(=O)O` [Example 51, 2-(3-Chloro-4-isobutyloxyphenyl)-4-methyl-5-thiazolecarboxylic acid], the inhibition in vivo at 1 mg/kg in experiment [3] turned out to be 78%. For the same compound, the IC50 in experiment [2] came out at 2.1 nM.
As to `Cc1nc(-c2ccc(N3CCN(C)CC3)c([N+](=O)[O-])c2)sc1C(=O)O` [Example 46, 4-methyl-2-(4-(4-methylpiperazinyl)-3-nitrophenyl)-5-thiazolecarboxylic acid], the inhibition in vivo at 1 mg/kg in experiment [3] was found to be 75%. This compound also gave an IC50 in experiment [2] of 2.4 nM.
Taken in the same sequence, the figures for `CCOCCOc1ccc(-c2nc(C)c(C(=O)O)s2)cc1C#N` [Example 80, 2-(3-CYano-4-(2-ethoxyethyloxy)phenyl)-4-methyl-5-thiazolecarboxylic acid] were 87% and 1.9 nM.
Take `CCOCCOc1ccc(-c2nc(C)c(C(=O)O)s2)cc1[N+](=O)[O-]` [Example 39, 2-(4-(2-Ethoxyethyloxy)-3-nitrophenyl)-4-methyl-5-thiazolecarboxylic acid]: in experiment [3], the inhibition in vivo at 1 mg/kg amounted to 82%. Moreover, the IC50 in experiment [2] amounted to 2.9 nM.
The matching figures for `Cc1nc(-c2ccc(Sc3ccc(Cl)cc3)c(Br)c2)sc1C(=O)O` [Example 65, 2-(3-Bromo-4-(4-chlorophenylthio)phenyl)-4-methyl-5-thiazolecarboxylic acid]: 42% and 1.6 nM.
As to “2-(4-morpholino-3-nitrophenyl)-4-methyl-5-thiazolecarboxylic acid [Example 38]”, the “Activity of lowering uric acid” value in experiment [3] is reported as 91%. Besides, in experiment [2], the IC50 turned out to be 1.8 nM.
`CCOc1ccc(-c2nc(C)c(C(=O)O)s2)cc1[N+](=O)[O-]` [Example 33, 2-(4-Ethoxy-3-nitrophenyl)-4-methyl-5-thiazolecarboxylic acid]: the inhibition in vivo at 1 mg/kg in experiment [3] was 71%. In experiment [2], this compound registered an IC50 of 0.36 nM.
The matching figures for `Cc1nc(-c2cc(Cl)c(OC(C)C)c(Cl)c2)sc1C(=O)O` [Example 68, 2-(3,5-dichloro-4-isopropoxyphenyl)-4-methyl-5-thiazolecarboxylic acid]: 13% and 2.2 nM.
Taken in the same sequence, the figures for `Cc1nc(-c2ccc(SC(C)C)c([N+](=O)[O-])c2)sc1C(=O)O` [Example 35, 2-(4-isopropylthio-3-nitrophenyl)-4-methyl-5-thiazolecarboxylic acid] were 57% and 0.3 nM.
`Cc1nc(-c2cc(Cl)c(OCCN3CCOCC3)c(Cl)c2)sc1C(=O)O` [Example 72, 2-(3,5-Dichloro-4-(2-morpholinoethyloxy)phenyl)-4-methyl-5-thiazolecarboxylic acid]: in experiment [3], the inhibition in vivo at 1 mg/kg came to 48%. Also, inhibition in experiment [2] was half-maximal at 0.7 nM (IC50).
`Cc1nc(-c2ccc(OCC(C)C)c([N+](=O)[O-])c2)sc1C(=O)O` [Example 34, 2-(4-Isobutyloxy-3-nitrophenyl)-4-methyl-5-thiazolecarboxylic acid]: the inhibition in vivo at 1 mg/kg in experiment [3] worked out at 76%. In experiment [2], this compound gave an IC50 of 2.4 nM.
Taken in the same sequence, the figures for `Cc1nc(-c2ccc(N3CCCCC3)c(Cl)c2)sc1C(=O)O` [Example 60, 2-(3-Chloro-4-piperidinophenyl)-4-methyl-5-thiazolecarboxylic acid] were 55% and 0.24 nM.
As to `Cc1nc(-c2ccc(OCCN3CCCCC3)c(Cl)c2)sc1C(=O)O` [Example 57, 2-(3-Chloro-4-(2-piperidinoethyloxy)phenyl)-4-methyl-5-thiazolecarboxylic acid], the inhibition in vivo at 1 mg/kg in experiment [3] turned out to be 15%. Further, the IC50 in experiment [2] was 1.2 nM.
The matching figures for `Cc1nc(-c2ccc(OCCN3CCOCC3)c(Cl)c2)sc1C(=O)O` [Example 56, 2-(3-Chloro-4-(2-morpholinoethyloxy)phenyl)-4-methyl-5-thiazolecarboxylic acid]: 50% and 1.5 nM.
Consider `CCCCCCOc1ccc(-c2nc(C)c(C(=O)O)s2)cc1[N+](=O)[O-]` [Example 41, 2-(4-n-Hexyloxy-3-nitrophenyl)-4-methyl-5-thiazolecarboxylic acid], for which the inhibition in vivo at 1 mg/kg in experiment [3] amounted to 92%. Besides, 0.32 nM corresponded to half-maximal inhibition in experiment [2] (IC50).
Taken in the same sequence, the figures for `Cc1nc(-c2ccc(OCCC(C)C)c(C#N)c2)sc1C(=O)O` [Example 79, 2-(3-Cyano-4-isopentyloxyphenyl)-4-methyl-5-thiazolecarboxylic acid] were 89% and 2.2 nM.
For `Cc1nc(-c2ccc(N3CCCCC3)c(Br)c2)sc1C(=O)O` [Example 66, 2-(3-Bromo-4-piperidinophenyl)-4-methyl-5-thiazolecarboxylic acid], the inhibition in vivo at 1 mg/kg in experiment [3] was 65%. Moreover, the IC50 in experiment [2] is 0.63 nM.
Consider `Cc1nc(-c2ccc([S+]([O-])c3ccc(Cl)cc3)c(Cl)c2)sc1C(=O)O` (centres unmarked) [Example 62, 2-(3-chloro-4-(4'-chlorophenylsulfinyl)phenyl)-4-methyl-5thiazolecarboxylic acid], for which, in experiment [3], the inhibition in vivo at 1 mg/kg was determined as 35%. In addition, in experiment [2], inhibition was half-maximal at 0.64 nM (IC50).
Regarding `Cc1nc(-c2ccc(OCC(C)(C)C)c(I)c2)sc1C(=O)O` [Example 85, 2-(3-iodo-4-neopentyloxyphenyl)-4-methyl-5-thiazolecarboxylic acid], the inhibition in vivo at 1 mg/kg in experiment [3] came out at 77%. This compound also returned an IC50 in experiment [2] of 0.12 nM.

Values taken from US5614520A, “2-arylthiazole derivatives and pharmaceutical composition thereof” (priority 1990, dated 1997).
